Results on 14 compounds are retold here after US10793568B2, “Hormone receptor modulators for treating metabolic conditions and disorders” (ARDELYX, INC., priority 2016, dated 2020).

The target in assay [1] is human Farnesoid X receptor ligand-binding domain/Gal4 DNA binding domain chimera (Homo sapiens (Human), UniProt Q96RI1). Kind of assay: Cell-based assay of FXR activation (FXR-UAS-bla HEK 293T beta-lactamase reporter). Particulars: cellular FXR beta-lactamase reporter assay; for Emax: HEK-293T, extent of activation relative to GW4064, read-out: % Efficacy; for EC50: FXR-UAS-bla HEK 293T cells, 16 h, pEC50 = -log EC50. An outline of the steps: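 Readout is cleavage of the CCF4 FRET substrate (409 nm excitation, blue 447 nm signal) by beta-lactamase, expressed under UAS control after a Gal4–human FXR LBD chimera is activated in HEK 293T cells. Compounds were added as 3-fold dilutions for 16 h at 37 °C in 2% charcoal-stripped FBS medium. Curves were fit to a 3-parameter logistic equation to give pEC50, with % activation relative to GW4064.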
Sequence of human Farnesoid X receptor ligand-binding domain/Gal4 DNA binding domain chimera (Q96RI1 262-486, change not shown): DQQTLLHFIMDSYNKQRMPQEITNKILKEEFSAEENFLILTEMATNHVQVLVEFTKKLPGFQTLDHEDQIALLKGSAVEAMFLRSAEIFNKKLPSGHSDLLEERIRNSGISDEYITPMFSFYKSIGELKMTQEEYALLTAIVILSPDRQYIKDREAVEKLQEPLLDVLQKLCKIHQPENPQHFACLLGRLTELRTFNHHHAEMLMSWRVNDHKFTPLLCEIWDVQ
Sequence of human Farnesoid X receptor ligand-binding domain/Gal4 DNA binding domain chimera (P04386 1-147 partner): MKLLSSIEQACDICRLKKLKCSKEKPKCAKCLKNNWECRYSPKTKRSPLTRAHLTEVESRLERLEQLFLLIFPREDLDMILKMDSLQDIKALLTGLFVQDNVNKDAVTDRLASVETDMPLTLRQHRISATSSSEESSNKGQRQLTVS
On the technique in general: A reporter such as luciferase makes a cellular process visible.

Assay [2] concerns the target ligand binding domain of human FXR (Homo sapiens (Human), UniProt Q96RI1). Kind of assay: FXR ligand binding assay (LanthaScreen TR-FRET, SRC2-2 peptide recruitment). Particulars: for Emax: extent of activation relative to GW4064, read-out: % Efficacy.
Setting [3] is: -log EC50, concentration required to produce 50% activation.

Each structure is given as a SMILES string.

For orientation: pEC50 means −log10 of the EC50, conventionally taken in molar units. The low end stands for a high EC50, the high end for a low EC50.

Sequence of ligand binding domain of human FXR (Q96RI1 262-486): as the sequence (Q96RI1 262-486, change not shown) above

Take `O=C(O)c1nnc(N2C[C@@H]3C[C@H]2C[C@H]3OCc2c(-c3c(Cl)cccc3Cl)noc2C2CC2)s1` [Compound I-178, 5-[(1S,4S,5R)-5-{[5-cyclopropyl-3-(2,6-dichlorophenyl)-1,2-oxazol-4-yl]methoxy}-2-azabicyclo[2.2.1]heptan-2-yl]-1,3,4-thiadiazole-2-carboxylic Acid]: in assay [1], the Emax was determined as 70% and the EC50 was 158 nM. The compound also showed a pEC50 in assay [2] (setting [3]) of 6.9. In assay [2], the Emax worked out at 86%.

Consider `O=C(O)c1ccc(N2C[C@@H]3C[C@H]2C[C@H]3OCc2c(-c3c(Cl)cccc3Cl)noc2C2(F)CC2)c(F)c1` [Compound I-57, 4-[(1S,4S,5R)-5-{[3-(2,6-dichlorophenyl)-5-(1-fluorocyclopropyl)-1,2-oxazol-4-yl]methoxy}-2-azabicyclo[2.2.1]heptan-2-yl]-3-fluorobenzoic Acid], for which, in assay [1], the Emax worked out at 109% and the EC50 was 1 nM. The compound also registered a pEC50 in assay [2] (setting [3]) of 7.9. In addition, the Emax in assay [2] was 146%.

The compound `O=C(O)c1cc(F)c2nc(N3C[C@@H]4C[C@H]3C[C@H]4OCc3c(-c4cccc(O)c4)noc3C3CC3)sc2c1` [Compound I-292, 2-((1S,4S,5R)-5-((5-cyclopropyl-3-(3-hydroxyphenyl)isoxazol-4-yl)methoxy)-2-azabicyclo[2.2.1]heptan-2-yl)-4-fluorobenzo[d]thiazole-6-carboxylic acid] had an EC50 in assay [1] of less than 31.6 nM. Besides, the pEC50 in assay [2] (setting [3]) was 6.5. Also, the Emax in assay [2] stood at 120%.

Consider `CCCCCCCCS(=O)(=O)NC(=O)c1ccc(N2C[C@@H]3C[C@H]2C[C@H]3OCc2c(-c3c(Cl)cccc3Cl)noc2C2CC2)c(F)c1` [Compound I-192, 4-((1S,4S,5R)-5-((5-cyclopropyl-3-(2,6-dichlorophenyl)isoxazol-4-yl)methoxy)-2-azabicyclo[2.2.1]heptan-2-yl)-3-fluoro-N-(octylsulfonyl)benzamide], for which the Emax came to 106% in assay [1] and 152% in assay [2]. In assay [1], this compound gave an EC50 of 0.2 nM. Moreover, the pEC50 in assay [2] (setting [3]) is 7.9.

Take `O=C(NCCS(=O)(=O)O)c1ccc(N2C(=O)[C@@H]3C[C@H]2C[C@H]3OCc2c(-c3c(Cl)cccc3Cl)noc2C2CC2)cc1` [Compound I-359, 2-({4-[(1S,4R,5R)-5-{[5-cyclopropyl-3-(2,6-dichlorophenyl)-1,2-oxazol-4-yl]methoxy}-3-oxo-2-azabicyclo[2.2.1]heptan-2-yl]phenyl}formamido)ethane-1-sulfonic Acid]: in assay [1], the Emax came out at 126% and the EC50 was 398 nM. This compound also showed a negative-log EC50 (pEC50) in assay [2] (setting [3]) of 8.4. Also, in assay [2], the Emax turned out to be 148%.

As for `O=C(NS(=O)(=O)C1CC1)c1ccc(N2C[C@@H]3C[C@H]2C[C@H]3OCc2c(-c3c(Cl)cccc3Cl)noc2C2CC2)cc1F` [Compound I-195, 4-((1S,4S,5R)-5-((5-cyclopropyl-3-(2,6-dichlorophenyl)isoxazol-4-yl)methoxy)-2-azabicyclo[2.2.1]heptan-2-yl)-N-(cyclopropylsulfonyl)-2-fluorobenzamide], in assay [1], the Emax is 109% and the EC50 was 0.316 nM. The same compound had a pEC50 in assay [2] (setting [3]) of 8.8. Further, the Emax in assay [2] came to 144%.

For `O=C(O)c1cc(OC2CC2)c2nc(N3C(=O)[C@@H]4C[C@H]3C[C@H]4OCc3c(-c4c(Cl)cccc4Cl)noc3C3CC3)sc2c1` [Compound I-297, 4-cyclopropoxy-2-((1S,4R,5R)-5-((5-cyclopropyl-3-(2,6-dichlorophenyl)isoxazol-4-yl)methoxy)-3-oxo-2-azabicyclo[2.2.1]heptan-2-yl)benzo[d]thiazole-6-carboxylic acid], in assay [1], the Emax is 110% and the EC50 is 0.316 nM. In assay [2] (setting [3]), the pEC50 worked out at 9. Also, the Emax in assay [2] was 77%.

In the case of `Cc1cccc(Cl)c1-c1noc(C2CC2)c1CO[C@@H]1C[C@@H]2C[C@H]1CN2c1nc2c(C)cc(C(=O)O)cc2s1` [Compound I-269], in assay [1], the Emax came out at 106% and the EC50 is 0.631 nM. In assay [2] (setting [3]), this compound yielded a pEC50 of 8.5. Moreover, in assay [2], the Emax was determined as 137%.

Regarding `O=C(O)c1cc(F)c(N2C[C@@H]3C[C@H]2C[C@H]3OCc2c(-c3c(Cl)cccc3Cl)noc2C2CC2)c(F)c1` [Compound I-54, 4-[(1S,4S,5R)-5-{[5-cyclopropyl-3-(2,6-dichlorophenyl)-1,2-oxazol-4-yl]methoxy}-2-azabicyclo[2.2.1]heptan-2-yl]-3,5-difluorobenzoic Acid], the Emax in assay [1] was found to be 101%; in assay [2] it was 158%. In addition, the EC50 in assay [1] was 0.316 nM; in assay [2] (setting [3]), 1.58 nM.

With `O=C(O)Cc1ccc(N2C[C@@H]3C[C@H]2C[C@H]3OCc2c(-c3c(Cl)cccc3Cl)noc2C2CC2)c(F)c1` [Compound I-153, 2-{4-[(1S,4S,5R)-5-{[5-cyclopropyl-3-(2,6-dichlorophenyl)-1,2-oxazol-4-yl]methoxy}-2-azabicyclo[2.2.1]heptan-2-yl]-3-fluorophenyl}acetic Acid], the Emax in assay [1] was 100%; in assay [2] it was 130%. In addition, the EC50 in assay [1] was 10 nM. This compound came in with a pEC50 in assay [2] (setting [3]) of 9.2.

As to `O=C(O)c1cc(F)c2nc(N3C[C@@H]4C[C@H]3C[C@@H]4OC(=O)c3c(-c4c(Cl)cccc4Cl)noc3C3CC3)sc2c1` [Compound I-34, 2-[(1S,4S,5S)-5-[5-cyclopropyl-3-(2,6-dichlorophenyl)-1,2-oxazole-4-carbonyloxy]-2-azabicyclo[2.2.1]heptan-2-yl]-4-fluoro-1,3-benzothiazole-6-carboxylic Acid], in assay [1], the Emax turned out to be 15% and the EC50 was 398 nM. The same compound came in with a pEC50 in assay [2] (setting [3]) greater than 4.5.

As for `COC(=O)c1ccc(N2C[C@@H]3C[C@H]2C[C@H]3OCc2c(-c3c(Cl)cccc3Cl)noc2C2CC2)cc1F` [Compound I-177, methyl 4-[(1S,4S,5R)-5-{[5-cyclopropyl-3-(2,6-dichlorophenyl)-1,2-oxazol-4-yl]methoxy}-2-azabicyclo[2.2.1]heptan-2-yl]-2-fluorobenzoate], the Emax in assay [1] was determined as 109%; in assay [2], 130%. In assay [1], the EC50 was 12.6 nM. In assay [2] (setting [3]), this compound came in with a pEC50 of 7.4.

Regarding `O=C(O)c1cc(OC(F)(F)F)c2nc(N3C[C@@H]4C[C@H]3C[C@H]4OC(=O)c3c(-c4ccccc4C(F)(F)F)noc3C3CC3)sc2c1` [Compound I-9, 2-[(1S,4S,5R)-5-{5-cyclopropyl-3-[2-(trifluoromethyl)phenyl]-1,2-oxazole-4-carbonyloxy}-2-azabicyclo[2.2.1]heptan-2-yl]-4-(trifluoromethoxy)-1,3-benzothiazole-6-carboxylic Acid], in assay [1], the Emax is 107% and the EC50 is 5.01 nM. The compound also registered a negative logarithm of the EC50 (pEC50) in assay [2] (setting [3]) of 7.1. Moreover, the Emax in assay [2] was 172%.

Consider `N#Cc1cc(F)c(N2C[C@@H]3C[C@H]2C[C@H]3OCc2c(-c3c(Cl)cccc3Cl)noc2C2CC2)c(F)c1` [Compound I-54a, 4-[(1S,4S,5R)-5-[[5-cyclopropyl-3-(2,6-dichlorophenyl)-1,2-oxazol-4-yl]methoxy]-2-azabicyclo[2.2.1]heptan-2-yl]-3,5-difluorobenzonitrile], for which the Emax was found to be 112% in assay [1] and 162% in assay [2]. This compound also gave an EC50 in assay [1] of 31.6 nM. Moreover, the pEC50 in assay [2] (setting [3]) came to 7.0.
